Experimental data as given in patent US7307085B2, “Mitotic kinesin inhibitors” (Merck & Co., Inc., priority 2003, dated 2007).
pIC50: −log10 of the molar value.

Target: T1, human KSP motor domain (KSP(367H)) (Homo sapiens, UniProt P52732)
T1 construct: were used to amplify the motor domain and the neck linker region; made in house; host or cells: E. coli BL21 (DE3)
T1 sequence (P52732 18-359 limits assumed): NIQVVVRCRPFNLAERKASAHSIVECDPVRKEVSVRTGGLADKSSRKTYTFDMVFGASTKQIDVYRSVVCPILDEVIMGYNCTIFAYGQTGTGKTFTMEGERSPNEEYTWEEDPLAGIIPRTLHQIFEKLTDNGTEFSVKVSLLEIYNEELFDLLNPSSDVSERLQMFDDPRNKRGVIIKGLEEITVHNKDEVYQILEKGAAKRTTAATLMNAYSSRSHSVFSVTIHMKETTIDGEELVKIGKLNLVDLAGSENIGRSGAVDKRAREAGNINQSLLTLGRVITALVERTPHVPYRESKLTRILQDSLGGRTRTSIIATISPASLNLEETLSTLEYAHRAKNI
Experiment: Kinesin ATPase In Vitro Assay
Format: biochemical
Conditions: human poly-histidine tagged KSP motor domain with microtubules, 1 mM ATP, 23° C.
Source text: I. Kinesin ATPase In Vitro Assay
Cloning and Expression of Human Poly-Histidine Tagged KSP Motor Domain_(KSP(367H))
Plasmids for the expression of the human KSP motor domain construct were cloned by PCR using a pBluescript full length human KSP construct (Blangy et al., Cell, vol. 83, pp 1159-1169, 1995) as a template. The N-terminal primer 5′-[…] (SEQ.ID.NO.: 1) and the C-terminal primer 5′-[…] […]lCAGGCTTATTCAATAT (SEQ.D.NO.: 2) were used to amplify the motor domain and the neck linker region. The PCR products were digested with AseI and XhoI, ligated into the NdeI/XhoI digestion product of pRSETa (Invitrogen) and transformed into E. coli BL21 (DE3).
Cells were grown at 37° C. to an OD600 of 0.5. […]
The kinesin motor domain is incubated with microtubules, 1 mM ATP (1:1 MgCl2: Na-ATP), and compound at 23° C. in buffer containing 80 mM K-HEPES (pH 7.0), 1 mM EGTA, 1 mM DTT, 1 mM MgCl2, and 50 mM KCl. […] Free phosphate from the ATP hydrolysis reaction is measured via a quinaldine redlammonium molybdate assay by adding a […] volume of quench C (e.g., to a mixture of 40 μl reaction volume+40 μl stop buffer is then added 120 μl quench C). […] Quench C is a 2:1 ratio of quench A:quench B The reaction is incubated for 5-10 minutes at 23° C., and the absorbance of the phospho-molybdate complex is measured at 540 nm.

SMILES | pIC50
O=C1CC[C@@H]2CC(c3cc(F)ccc3F)=C[C@@H](c3ccccc3)N12 [1-5, (−)-(5S,8aR)-7-(2,5-difluorophenyl)-5-phenyl-1,5,8,8a-tetrahydroindolizin-3(2H)-one] | ≥ 4.30
O=C1CC[C@@H]2C=C(c3cc(F)ccc3F)C[C@@H](c3ccccc3)N12 [1-6, (+)-(5S,8aR)-7-(2,5-difluorophenyl)-5-phenyl-1,5,6,8a-tetrahydroindolizin-3(2H)-one] | ≥ 4.30
